Among the data in patent publication US8980877B2, “Spirocyclic derivatives as histone deacetylase inhibitors” (DAC S.R.L., priority 2008, dated 2015) are IC50 values, retold here.

Usually IC50 stands for the midpoint of a concentration-inhibition curve.

Assay [1] concerns A549 cells. Put plainly: Cell growth, CellTiter-Glo Luminescent Cell Viability Assay, A549. The assay is classed as cell-based. To be noted: Homo sapiens, 72 h incubation, read-out: A549 (antiproliferative assay IC50). From the text:
(§1) CellTiter-Glo® Luminescent Cell Viability Assay (Promega) is a homogeneous method of determining the number of viable cells in culture based on quantitation of the present ATP, which indicates the presence of metabolically active cells. The homogeneous assay procedure involves addition of a single reagent (CellTiter-Glo® Reagent) directly to the cells, which leads to cell lysis and generation of a luminescent signal proportional to the amount of the ATP and the number of cells present in culture. The assay relies on the properties of a proprietary thermostable luciferase (Ultra-Glo® recombinant luciferase), which generates a luminescent signal.
(§2) K562, A549, and HCT-116 cells, in exponential growth, were incubated for 72 h with different concentrations of the inhibitors. After 72 h, a volume of CellTiter-Glo® Reagent equal to the volume of cell culture medium was added. The content was mixed for 2 min to induce cell lysis. The luminescence was recorded after further 10 min at RT in order to obtain a stable luminescent signal.
(§3) The IC50 was calculated using GraphPad Software.
For orientation: Cellular ATP, detected with luciferase, serves as a proxy for viable cell number.

In assay [2] the test system is K562 cells. Put plainly: Cell growth, CellTiter-Glo Luminescent Cell Viability Assay, K562. Type of assay: cell-based. The following applies: Homo sapiens, 72 h incubation, read-out: K562 (antiproliferative assay IC50).
From the text: as §1, §2, §3

In assay [3] the test system is HDAC (nuclear fraction of Hela cells). Put plainly: Assay of enzyme inhibition of HDAC (BIOMOL Kit). Type of assay: biochemical. To be noted: substrate 200 μM, 15 min at RT, fluorescence. The protocol:
The in-vitro activity of HDAC inhibitors was assayed using a BIOMOL Kit, according to the instructions from the manufacturer (Biomolecular Research Laborator). 15 μl of 30× diluted nuclear fraction of Hela cells, was diluted to 50 μl with the assay buffer containing the HDAC inhibitor and the substrate (lysine with acetylated amino group on the side chain) at a concentration of 200 μM. The samples were incubated for 15 min at RT and then exposed to a developer (10 min at RT). In this last step a fluorophore was produced, whose fluorescence was measured using an excitation wavelength of 355 nm and an emission at 460 nm. The IC50 was calculated using GraphPad Software.

Assay [4] relates to HCT-116 cells. Put plainly: Cell growth, CellTiter-Glo Luminescent Cell Viability Assay, HCT-116. The assay is classed as cell-based. To be noted: Homo sapiens, 72 h incubation, read-out: HCT116 (antiproliferative assay IC50).
From the text: as §1, §2, §3

Turning to `CO/N=C1/CC2(CCCN(Cc3ccc(F)cc3)C2)Oc2ccc(/C=C/C(=O)NO)cc21` (centres unmarked) [Example 53, (E)-3-(1′-(4-Fluorobenzyl)-4-(methoxyimino)spiro[chroman-2,3′-piperidine]-6-yl)-N-hydroxyacrylamide], the half-maximal inhibitory concentration (IC50) in assay [1] is at least 3000 nM; in assay [2] it was 1000 to 3000 nM; in assay [3], at least 1000 nM; in assay [4] it was 1000 to 3000 nM. In assay [3], `O=C(/C=C/c1ccc2c(c1)C(=O)CC1(CCCN(Cc3ccccc3)CC1)O2)NO` (racemic) [Example 23, (±)-(E)-3-[1′-Benzyl-4-oxo-spiro(chromane-2,4′-azepane)-6-yl]-N-hydroxy-acrylamide] gave an IC50 of at most 100 nM. The compound `O=C(/C=C/c1ccc2c(c1)C(=O)CC1(CN(C(=O)c3ccccc3)C1)O2)NO` [Example 37, (E)-3-[1′-Benzoyl-4-oxo-spiro(chromane-2,3′-azetidine)-6-yl]-N-hydroxy-acrylamide] registered a half-maximal inhibitory concentration (IC50) in assay [3] of at most 100 nM. Same read-out and setting: in the case of `Cn1cc(CN2CCC3(CC(=O)c4cc(/C=C/C(=O)NO)ccc4O3)C2)c2ccccc21` (racemic) [Example 10, (±)-(E)-3-[1′(1-Methyl-1H-indol-3-ylmethyl)-4-oxo-spiro(chromane-2,3′-pyrrolidine)-6-yl]-N-hydroxy-acrylamide] it was at most 100 nM. Still for that read-out and setting: in the case of `O=C(/C=C/c1ccc2c(c1)C(=O)CC1(CCN(CCc3ccccc3)C1)O2)NO` (racemic) [Example 9, (±)-(E)-3-[1′-(2-Phenyl-ethyl)-4-oxo-spiro(chromane-2,3′-pyrrolidine)-6-yl]-N-hydroxy-acrylamide] it was at most 100 nM; in that of `O=C(/C=C/c1ccc2c(c1)C(=O)CC1(CCN(Cc3ccccc3)C1)O2)NO` (single isomer, unassigned; (-)) [Example 3, (−)-(E)-3-[1′-Benzyl-4-oxo-spiro(chromane-2,3′-pyrrolidine)-6-yl]-N-hydroxy-acrylamide], at most 100 nM; in that of `O=C(/C=C/c1ccc2c(c1)C(=O)CC1(CN(Cc3ccccc3)C1)O2)NO` [Example 31, (E)-3-[1′-Benzyl-4-oxo-spiro(chromane-2,3′-azetidine)-6-yl]-N-hydroxy-acrylamide], at most 100 nM. Same read-out and setting: under `O=C(/C=C/c1ccc2c(c1)C(=O)CC1(CCN(Cc3ccccc3)C1)O2)NO` (racemic) [Example 2, (±)-(E)-3-[1′-Benzyl-4-oxo-spiro(chromane-2,3′-pyrrolidine)-6-yl]-N-hydroxy-acrylamide] stands at most 100 nM. The compound `O=C(/C=C/c1ccc2c(c1)C(=O)CC1(CCCN(Cc3ccccc3)C1)O2)NO` (single isomer, unassigned; (+)) [Example 18, (+)-(E)-3-[1′-Benzyl-4-oxo-spiro(chromane-2,3′-piperidine)-6-yl]-N-hydroxy-acrylamide] displayed a half-maximal inhibitory concentration (IC50) in assay [3] of 100 to 1000 nM. Still for that read-out and setting: under `O=C(/C=C/c1ccc2c(c1)C(=O)CC1(CCCN(CCc3ccccc3)CC1)O2)NO` (racemic) [Example 28, (±)-(E)-3-[1′(2-Phenyl-ethyl)-4-oxo-spiro(chromane-2,4′-azepane)-6-yl]-N-hydroxy-acrylamide] stands at most 100 nM; under `Cn1cc(CN2CC3(CC(=O)c4cc(/C=C/C(=O)NO)ccc4O3)C2)c2ccccc21` [Example 44, (E)-3-[1′-(1-Methyl-1H-indol-3-ylmethyl)-4-oxo-spiro(chromane-2,3′-azetidine)-6-yl]-N-hydroxy-acrylamide], at most 100 nM.

Consider `O=C(/C=C/c1ccc2c(c1)C(=O)CC1(CCCN(Cc3ccccc3)C1)O2)NO` (single isomer, unassigned; (-)) [Example 17, (−)-(E)-3-[1′-Benzyl-4-oxo-spiro(chromane-2,3′-piperidine)-6-yl]-N-hydroxy-acrylamide], for which, in assay [3], the IC50 is at most 100 nM. In assay [3], `O=C(/C=C/c1ccc2c(c1)C(=O)CC1(CCCN(CCc3ccccc3)C1)O2)NO` (racemic) [Example 20, (±)-(E)-3-[1′-(2-Phenyl-ethyl)-4-oxo-spiro(chromane-2,3′-piperidine)-6-yl]-N-hydroxy-acrylamide] gave an IC50 of at most 100 nM.

In assay [3], `O=C(/C=C/c1ccc2c(c1)C(=O)CC1(CCCN(Cc3ccccc3)C1)O2)NO` (racemic) [Example 13, (±)-(E)-3-[1′Benzyl-4-oxo-spiro(chromane-2,3′-piperidine)-6-yl]-N-hydroxy-acrylamide] gave a concentration for half-maximal inhibition (IC50) of at most 100 nM.

As for `O=C(/C=C/c1ccc2c(c1)C(=NO)CC1(CCCN(C3CCCC3)C1)O2)NO` (centres unmarked) [Example 54, (E)-3-(1′-Cyclopentyl-4-(hydroxyimino)spiro[chroman-2,3′-piperidine]-6-yl)-N-hydroxyacrylamide], the IC50 in assay [3] was at most 100 nM. For the compound `O=C(/C=C/c1ccc2c(c1)/C(=N\OCc1ccccc1)CC1(CCCN(CCc3ccccc3)C1)O2)NO` (centres unmarked) [Example 55, (E)-3-(4-(Benzyloxyimino)-1′-phenethylspiro[chroman-2,3′-piperidine]-6-yl)-N-hydroxyacrylamide], the 50% inhibitory concentration (IC50) in assay [1] was 1000 to 3000 nM; in assay [2], at most 1000 nM; in assay [3], at least 1000 nM; in assay [4] it was at most 1000 nM. Consider `O=C(/C=C/c1ccc2c(c1)C(=O)CC1(CCCN(Cc3ccc(F)cc3)C1)O2)NO` (racemic) [Example 19, (±)-(E)-3-[1′(4-Fluoro-benzyl)-4-oxo-spiro(chromane-2,3′-piperidine)-6-yl]-N-hydroxy-acrylamide], for which, in assay [3], the half-maximal inhibitory concentration (IC50) is at most 100 nM. The same measure, in the same setting: under `O=C(/C=C/c1ccc2c(c1)C(=O)NC1(CCCN(Cc3ccccc3)C1)O2)NO` (racemic) [Example 40, (±)-(E)-3-{1′-Benzyl-3,4-dihydro-4-oxo-spiro[2H-(1,3)-benzoxazine-2,3′-piperidin]-6-yl}-N-hydroxy-acrylamide] stands at most 100 nM; under `O=C(/C=C/c1ccc2c(c1)C(=O)NC1(CCCN(CCc3ccccc3)C1)O2)NO` (racemic) [Example 43, (±)-(E)-3-{1′-(2-Phenyl-ethyl)-3,4-dihydro-4-oxo-spiro[2H-(1,3)-benzoxazine-2,3′-piperidin]-6-yl}-N-hydroxy-acrylamide], at most 100 nM. Same read-out and setting: under `O=C(/C=C/c1ccc2c(c1)C(=O)CC1(CCCN(C3CCCC3)C1)O2)NO` (racemic) [Example 50, (±)-(E)-3-[1′-Cyclopentyl-4-oxo-spiro(chromane-2,3′-piperidine)-6-yl]-N-hydroxy-acrylamide] stands at most 100 nM.
